22 compounds from US20050267133A1, “Pyrazolopyrimidines as kinase inhibitors” (priority 2002, published 2005) can be followed below.

Some results are limits rather than exact numbers.

For one assay, the target named is GSK-3β (Homo sapiens, UniProt P49841). Put plainly: GSK3 scintillation proximity assay (SPA) kinase assay. Type of assay: biochemical. As to conditions: 20 nM kinase, 2.5 uM ATP, biotinylated glycogen synthase peptide, 40 minutes at room temperature; -log IC50 in Molar; read-out: GSK-3 pIC50 (converted). The source says:
The phosphorylated biotinylated peptide is then captured onto streptavidin coated scintillation proximity assay (SPA) beads from Amersham Technology, where the signal from the ^33P is amplified via the scintillant contained in the beads.
GSK-3β is commercially available or may be cloned and expressed in E. coli using standard techniques to produce soluble, active protein. The production of active protein involves purification in two steps using Metal Chelate and Ion Exchange Chromatography. Protein eluting from Ion Exchange provides >90% pure product that may then be concentrated for use in high throughput screening.
The kinase was assayed at a concentration of 20 nM final in 100 mM HEPES, pH 7.2 containing 10 mM magnesium chloride, 0.1 mg/mL bovine serum albumin, 1 mM dithiothreitol, 0.3 mg/mL heparin, 2.8 uM peptide substrate, 2.5 uM ATP, and 0.2 uCi/well [[…]-^33P]-ATP. After 40 minutes incubation at room temperature, the reaction was stopped by addition of 100 mM EDTA and […] in 100 mM HEPES, pH7.2 followed by an additional solution of diluted Streptavidin coated SPA beads in PBS, pH 7.2 to give a final concentration of 0.25 mg of beads per assay well in a 96-well microtiter plate.
10 mM stock solutions of the compounds of the invention in 100% DMSO are generated as a first step in the screening process. The second step involves the creation of dose response plates where these compounds are diluted 10-fold in 100% DMSO to 1 mM concentrations and subsequently serially diluted 3-fold in 100% DMSO across the plate by automated liquid handling such that the final top concentration of inhibitor is 0.033 mM in the 30 uL kinase assay. The third step involves the creation of the assay plates. This is achieved by transferring 1 uL of the compounds to assay plates by automated liquid handling. The fourth step is to perform the assay as described and count the resulting plates in the Packard TopCount NXT microplate scintillation and luminescence counter.
The final step is data acquisition and analysis where IC50 values are generated for each compound by normalizing curve data to the equation 100*(U1−C2)/(C1−C2) (where U1 is the cpm value, C2 is the background, and C1 is the maximum number of counts), then fitting the normalized data to the equation y=Vmax*(1−(x/(K+x))). The IC50 values were converted to pIC50 values, i.e., −log IC50 in Molar concentration. The data is expressed below in Table 1.
Background: In a scintillation proximity assay essentially only radioactivity close to the scintillant gives light.

In assay [1] the target is T1, GST-TIE2 (intracellular domains of human TIE2) (Homo sapiens, UniProt Q02763).
T1 construct: made in house
T1 sequence (Q02763 762-1104): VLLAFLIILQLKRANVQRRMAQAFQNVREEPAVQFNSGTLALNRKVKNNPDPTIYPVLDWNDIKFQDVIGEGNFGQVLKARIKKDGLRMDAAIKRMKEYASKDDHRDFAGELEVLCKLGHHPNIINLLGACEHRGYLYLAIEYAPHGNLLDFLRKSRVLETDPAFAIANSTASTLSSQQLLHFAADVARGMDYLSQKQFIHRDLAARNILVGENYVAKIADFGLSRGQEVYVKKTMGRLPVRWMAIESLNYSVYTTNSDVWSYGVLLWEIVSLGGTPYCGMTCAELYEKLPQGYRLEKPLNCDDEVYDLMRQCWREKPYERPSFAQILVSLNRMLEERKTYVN
Put plainly: TIE-2 Enzyme Assay (TIE2-E), LANCE method. Type of assay: biochemical. As to conditions: preactivated GST-TIE2, 1 μM D1-15 peptide, 80 uM ATP, 30 mins at room temperature; pIC50 = -log IC50 in Molar. The source says:
The TIE-2 enzyme assay used the LANCE method (Wallac) and GST-TIE2, baculovirus expressed recombinant constructs of the intracellular domains of human TIE2 (amino acids 762-1104, GenBank Accession # L06139) tagged by GST). The method measured the ability of the purified enzymes to catalyse the transfer of the γ-phosphate from ATP onto tyrosine residues in a biotinylated synthetic peptide, D1-15 (biotin-C6-LEARLVAYEGWVAGKKKamide). This peptide phosphorylation was detected using the following procedure: for enzyme preactivation, GST-TIE2 was incubated for 30 mins at room temperature with 2 mM ATP, 5 mM MgCl2 and 12.5 mM DTT in 22.5 mM HEPES buffer (pH7.4). Preactivated GST-TIE2 was incubated for 30 mins at room temperature in 96 well plates with 1 μM D1-15 peptide, 80 uM ATP, 10 mM MgCl2, 0.1 mg/ml BSA and the test compound (diluted from a 10 mM stock in DMSO, final DMSO concentration was 2.4%) in 1 mM HEPES (pH7.4). The reaction was stopped by the addition of EDTA (final concentration 45 mM). Streptavidin linked-APC (allophycocyanin, Molecular Probe) and Europium-labeled anti-phosphorylated tyrosine antibody (Wallac) were then added at the final concentration of 17 μg/well and 2.1 μg/well, respectively. The APC signal was measured using an ARVO multilabel counter. (Wallac Berthold Japan). The percent inhibition of activity was calculated relative to blank control wells.
The concentration of test compound that inhibits 50% of activity (IC50) was interpolated using nonlinear regression (Levernberg-Marquardt) and the equation, y=Vmax (1−x/(K+x))+Y2, where “K” was equal to the IC50. The IC50 values were converted to pIC50 values, i.e., −log IC50 in Molar concentration.
Test compounds are employed in free or salt form.
A general note: In TR-FRET formats the signal depends on donor and acceptor labels being close together.

Chain of GSK-3β (P49841 whole entry, species assumed): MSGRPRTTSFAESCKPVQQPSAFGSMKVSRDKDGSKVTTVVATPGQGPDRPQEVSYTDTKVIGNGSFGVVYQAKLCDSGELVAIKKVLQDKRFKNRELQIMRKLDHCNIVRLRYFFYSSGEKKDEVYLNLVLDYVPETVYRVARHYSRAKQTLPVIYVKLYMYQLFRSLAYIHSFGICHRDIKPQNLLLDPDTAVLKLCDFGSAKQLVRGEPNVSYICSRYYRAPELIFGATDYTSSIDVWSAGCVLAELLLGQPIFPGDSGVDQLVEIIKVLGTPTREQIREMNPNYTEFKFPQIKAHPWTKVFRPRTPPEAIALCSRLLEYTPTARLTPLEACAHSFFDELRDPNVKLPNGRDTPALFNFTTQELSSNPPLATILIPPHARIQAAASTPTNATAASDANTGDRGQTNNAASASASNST

In the case of `Oc1cccc(/C=N/Nc2ncnc3c2cnn3-c2ccccc2)c1` [Example 6, 3-Hydroxybenzaldehyde (1-phenyl-1H-pyrazolo[3,4-d]pyrimidin-4-yl)hydrazone], the IC50 on GSK-3β is 100 to 1000 nM; in assay [1] it was 1000 to 10000 nM.
On to `COc1cc(/C=N/Nc2ncnc3c2cnn3-c2ccccc2)cc(O)c1OC` [Example 7, 3-Hydroxy-4,5-dimethoxybenzaldehyde (1-phenyl-1H-pyrazolo[3,4-d]pyrimidin-4-yl)hydrazone], for which the IC50 is under 100 nM at GSK-3β and 100 to 1000 nM in assay [1].
Turning to `NS(=O)(=O)c1ccc(/C=N/Nc2ncnc3c2cnn3-c2ccccc2)cc1` [Example 20, 4-{(E)-[(1-phenyl-1H-pyrazolo[3,4-d]pyrimidin-4-yl)hydrazonol]methyl}benzenesulfonamide], the IC50 is under 100 nM on GSK-3β and 100 to 1000 nM in assay [1].
As to `O=C(O)c1ccc(/C=N/Nc2ncnc3c2cnn3-c2ccccc2)cc1` [Example 24, 4-{(E)-[(1-phenyl-1H-pyrazolo[3,4-d]pyrimidin-4-yl)hydrazono]methyl}benzoic Acid], the IC50 (on GSK-3β; in assay [1]) was 100 to 1000 nM throughout.
With `CN(C)CCNC(=O)c1ccc(/C=N/Nc2ncnc3c2cnn3-c2ccccc2)cc1` [Example 25, N-[2-(dimethylamino)ethyl]-4-{(E)-[(1-phenyl-1H-pyrazolo[3,4-d]pyrimidin-4-yl)hydrazono]methyl}benzamide], the values for the IC50 (on GSK-3β; in assay [1]) were under 100 nM and 100 to 1000 nM, respectively.
On to `O=C(NCCCN1CCCC1)c1ccc(/C=N/Nc2ncnc3c2cnn3-c2ccccc2)cc1` [Example 26, 4-{(E)-[(1-phenyl-1H-pyrazolo[3,4-d]pyrimidin-4-yl)hydrazono]methyl}-N-(3-pyrrolidin-1-ylpropyl)benzamide], for which the IC50 on GSK-3β was under 100 nM; in assay [1] it was 100 to 1000 nM.
For `O=C(NCCCN1CCOCC1)c1ccc(/C=N/Nc2ncnc3c2cnn3-c2ccccc2)cc1` [Example 27], the IC50 is under 100 nM on GSK-3β and 100 to 1000 nM in assay [1].
Regarding `O=C(NCCc1c[nH]cn1)c1ccc(/C=N/Nc2ncnc3c2cnn3-c2ccccc2)cc1` [Example 29, N[2-(1H-imidazol-4-yl)ethyl]-4-{(E)-[(1-phenyl-1H-pyrazolo[3,4-d]pyrimidin-4-yl)hydrazono]methyl}benzamide], the IC50 (on GSK-3β; in assay [1]) was 100 to 1000 nM in each case.
Regarding `CN(CCc1ccccn1)C(=O)c1ccc(/C=N/Nc2ncnc3c2cnn3-c2ccccc2)cc1` [Example 30, N-Methyl-4-{(E)-[(1-phenyl-1H-pyrazolo[3,4-d]pyrimidin-4-yl)hydrazono]methyl}-N-(2-pyridin-2-ylethyl)benzamide], the IC50 (on GSK-3β; in assay [1]) was 100 to 1000 nM each time.
`NCCNC(=O)c1ccc(/C=N/Nc2ncnc3c2cnn3-c2ccccc2)cc1` [Example 31, N-(2-Aminoethyl)-4-{(E)-[(1-phenyl-1H-pyrazolo[3,4-d]pyrimidin-4-yl)hydrazono]methyl}benzamide]: the IC50 on GSK-3β is 100 to 1000 nM; in assay [1], 1000 to 10000 nM.
Consider `NCCCNC(=O)c1ccc(/C=N/Nc2ncnc3c2cnn3-c2ccccc2)cc1` [Example 32, N-(3-aminopropyl)-4-{(E)-[(1-phenyl-1H-pyrazolo[3,4-d]pyrimidin-4-yl)hydrazono]methyl}benzamide], for which the IC50 (on GSK-3β; in assay [1]) was 100 to 1000 nM throughout.
For the compound `O=C(NCCN1CCCCC1)c1ccc(/C=N/Nc2ncnc3c2cnn3-c2ccccc2)cc1` [Example 33, 4-{(E)-[(1-phenyl-1H-pyrazolo[3,4-d]pyrimidin-4-yl)hydrazono]methyl}-N-(2-piperidin-1-ylethyl)benzamide], the values for the IC50 (on GSK-3β; in assay [1]) were under 100 nM and 100 to 1000 nM, respectively.
For `O=C(NCCN1CCCC1)c1ccc(/C=N/Nc2ncnc3c2cnn3-c2ccccc2)cc1` [Example 34, 4-{(E)-[(1-phenyl-1H-pyrazolo[3,4-d]pyrimidin-4-yl)hydrazono]methyl}-N-(2-pyrrolidin-1-ylethyl)benzamide], the IC50 (at GSK-3β; in assay [1]) was 100 to 1000 nM throughout.
Regarding `CN(C)CCN1CCN(C(=O)c2ccc(/C=N/Nc3ncnc4c3cnn4-c3ccccc3)cc2)CC1` [Example 35, 4-({4-[2-(Dimethylamino)ethyl]piperazin-1-yl}carbonyl)benzaldehyde (1-phenyl-1H-pyrazolo[3,4-d]pyrimidin-4-yl)hydrazone], the IC50 (at GSK-3β; in assay [1]) was 100 to 1000 nM throughout.
In the case of `COCCN1CCN(C(=O)c2ccc(/C=N/Nc3ncnc4c3cnn4-c3ccccc3)cc2)CC1` [Example 36, 4-{[4-(2-methoxyethyl)piperazin-1-yl]carbonyl}benzaldehyde (1-phenyl-1H-pyrazolo[3,4-d]pyrimidin-4-yl)hydrazone], the IC50 (on GSK-3β; in assay [1]) was 100 to 1000 nM each time.
For `CN1CCN(CCCNC(=O)c2ccc(/C=N/Nc3ncnc4c3cnn4-c3ccccc3)cc2)CC1` [Example 37, N[3-(4-Methylpiperazin-1-yl)propyl]-4-{(E)-[(1-phenyl-1H-pyrazolo[3,4-d]pyrimidin-4-yl)hydrazono]methyl}benzamide], the IC50 (on GSK-3β; in assay [1]) was 100 to 1000 nM each time.
In the case of `CS(=O)(=O)CCNC(=O)c1ccc(/C=N/Nc2ncnc3c2cnn3-c2ccccc2)cc1` [Example 38, N-[2-(Methylsulfonyl)ethyl]-4-{(E)-[(1-phenyl-1H-pyrazolo[3,4-d]pyrimidin-4-yl)hydrazono]methyl}benzamide], the IC50 was under 100 nM at GSK-3β and 100 to 1000 nM in assay [1].
For the compound `O=C(O)c1cccc(/C=N/Nc2ncnc3c2cnn3-c2ccccc2)c1` [Example 39, 3-{(E)-[(1-phenyl-1H-pyrazolo[3,4-d]pyrimidin-4-yl)hydrazono]methyl}benzoic Acid], the IC50 (at GSK-3β; in assay [1]) was 1000 to 10000 nM throughout.
For `COc1cc(/C=N/Nc2ncnc3c2cnn3-c2ccccc2)ccc1O` [Example 43, 4-Hydroxy-3-methoxybenzaldehyde (1-phenyl-1H-pyrazolo[3,4-d]pyrimidin-4-yl)hydrazone], the IC50 at GSK-3β was under 100 nM; in assay [1] it was 100 to 1000 nM.
Taken in the same sequence, the figures for `OCc1cc(/C=N/Nc2ncnc3c2cnn3-c2ccccc2)ccc1O` [Example 44, 4-Hydroxy-3-hydroxymethylbenzaldehyde (1-phenyl-1H-pyrazolo[3,4-d]pyrimidin-4-yl)hydrazone] were 100 to 1000 nM and 100 to 1000 nM.
For `COc1ccc(/C=N/Nc2ncnc3c2cnn3-c2ccccc2)cc1O` [Example 45, 3-Hydroxy-4-methoxybenzaldehyde (1-phenyl-1H-pyrazolo[3,4-d]pyrimidin-4-yl)hydrazone], the IC50 (at GSK-3β; in assay [1]) was 100 to 1000 nM throughout.
As for `CCOc1cc(/C=N/Nc2ncnc3c2cnn3-c2ccccc2)cc(Br)c1O` [Example 46, 3-Bromo-4-hydroxy-3-ethoxybenzaldehyde (1-phenyl-1H-pyrazolo[3,4-d]pyrimidin-4-yl)hydrazone], the results for the IC50 (at GSK-3β; in assay [1]) were 1000 to 10000 nM and 100 to 1000 nM, respectively.
